Reference: patent US20150105252A1, “SUBSTITUTED PYRAZOLES AS HERBICIDES” (E I DU PONT DE NEMOURS AND COMPANY, priority 2013, published 2015)

Legend:
blackgrass = assay: Test C postemergence; format: in vivo, Alopecurus myosuroides; details: for Plant response rating (scale of 0 to 100 where 0 is no effect and 100 is complete control), Blackgrass: 31 g ai/ha, visually evaluated after 13 to 15 days; for Blackgrass plant response rating / Plant response rating, Blackgrass: postemergence; for Blackgrass plant response rating: 62 g ai/ha, scale 0 to 100
How it was run: (§1)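 Greenhouse pot test: preemergence application onto freshly seeded loam/sand mix, postemergence application onto seedlings (1–4 leaves, 2–18 cm) in peat-vermiculite substrate. Responses scored visually 13 to 15 days later relative to controls, where 0 means no effect and 100 means complete control; a dash indicates no result.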

morningglory [1] = assay: Test A postemergence; format: in vivo, Ipomoea spp.
How it was run: (§2)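 Growth medium: loam soil blended with sand. Preemergence treatment used a directed soil spray right after planting; postemergence treatment targeted seedlings at one to two leaves (2–10 cm height). Response was judged by eye relative to untreated plants about 10 days later on a 0–100 control scale.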

pigweed = assay: Test A postemergence; format: in vivo, Amaranthus retroflexus
How it was run: as §2

morningglory [2] = assay: Test A preemergence; format: in vivo, Ipomoea spp.; details: preemergence
How it was run: as §2

crabgrass, large [3] = assay: Test C postemergence; format: in vivo, Digitaria sanguinalis; details: for Plant response rating (scale of 0 to 100 where 0 is no effect and 100 is complete control), Crabgrass, Large: 31 g ai/ha, visually evaluated after 13 to 15 days; for Crabgrass, Large plant response rating / Plant response rating, Crabgrass, Large: postemergence; for Crabgrass, Large plant response rating: 62 g ai/ha, scale 0 to 100
How it was run: as §1

johnsongrass = assay: Test C postemergence; format: in vivo, Sorghum halepense; details: for Plant response rating (scale of 0 to 100 where 0 is no effect and 100 is complete control), Johnsongrass: 31 g ai/ha, visually evaluated after 13 to 15 days; for Johnsongrass plant response rating / Plant response rating, Johnsongrass: postemergence; for Johnsongrass plant response rating: 62 g ai/ha, scale 0 to 100
How it was run: as §1

barnyardgrass = assay: Test B flood; format: in vivo, Echinochloa crus-galli; details: 250 g ai/ha, visual rating on 0 to 100 scale (0 no effect, 100 complete control), 13 to 15 days
How it was run: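 Visual ratings on a 0–100 scale, where 0 means no effect and 100 means complete control, were assigned by comparison with controls 13 to 15 days after treatment. Compounds went into paddy water over 2-leaf plants flooded to 3 cm.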

corn = assay: Test C postemergence; format: in vivo, Zea mays; details: for Plant response rating (scale of 0 to 100 where 0 is no effect and 100 is complete control), Corn: 31 g ai/ha, visually evaluated after 13 to 15 days; for Corn plant response rating / Plant response rating, Corn: postemergence; for Corn plant response rating: 62 g ai/ha, scale 0 to 100
How it was run: as §1

crabgrass, large [4] = assay: Test C preemergence; format: in vivo, Digitaria sanguinalis
How it was run: as §1

foxtail, giant = assay: Test C preemergence; format: in vivo, Setaria faberii
How it was run: as §1

oilseed rape = assay: Test C postemergence; format: in vivo, Brassica napus; details: for Plant response rating (scale of 0 to 100 where 0 is no effect and 100 is complete control), Oilseed Rape: 31 g ai/ha, visually evaluated after 13 to 15 days; for Oilseed Rape plant response rating / Plant response rating, Oilseed Rape: postemergence; for Oilseed Rape plant response rating: 62 g ai/ha, scale 0 to 100
How it was run: as §1

waterhemp = assay: Test C preemergence; format: in vivo, Amaranthus rudis
How it was run: as §1

wheat = assay: Test C postemergence; format: in vivo, Triticum aestivum; details: for Plant response rating (scale of 0 to 100 where 0 is no effect and 100 is complete control), Wheat: 31 g ai/ha, visually evaluated after 13 to 15 days; for Wheat plant response rating / Plant response rating, Wheat: postemergence; for Wheat plant response rating: 62 g ai/ha, scale 0 to 100
How it was run: as §1

[5] = 125 g ai/ha, scale 0 to 100, 0 no effect, 100 complete control
[6] = Postemergence, 500 g ai/ha, visual rating after approx. 10 days, 0 to 100 scale (0 no effect, 100 complete control)
[7] = postemergence, 125 g ai/ha, about 10 days, visual rating on 0 to 100 scale (0 no effect, 100 complete control)
[8] = 125 g ai/ha, visual injury, 0 to 100 scale, approx. 10 days
[9] = 500 g ai/ha, visual injury after approx. 10 days, 0 to 100 scale (0 no effect, 100 complete control)
[10] = Preemergence, 16 g ai/ha, scale 0 to 100
[11] = preemergence, 31 g ai/ha, visual rating, scale 0 to 100 (0 no effect, 100 complete control), 13 to 15 days
[12] = preemergence, 62 g ai/ha, 13 to 15 days, scale 0 to 100, 0 = no effect, 100 = complete control
[13] = preemergence, 125 g ai/ha, scale 0 to 100, 0 is no effect, 100 is complete control
[14] = 250 g ai/ha, scale 0 to 100 (0 no effect, 100 complete control)

CCc1cc(C(=O)NOC(C)C)nn1Cc1ccnc(C(F)(F)F)c1 [Compound 101]
20: Plant response rating, Crabgrass, Large (crabgrass, large [3]; [5])
65: Plant response rating, Crabgrass, Large (crabgrass, large [4]; [10])
80: Morningglory plant response rating (morningglory [2]; [8]) | Crabgrass, Large plant response rating (crabgrass, large [4]; [11]) | Foxtail, Giant plant response rating (foxtail, giant; [11])
15: Plant response rating, Blackgrass (blackgrass; [5]) | Crabgrass, Large plant response rating (crabgrass, large [3]) | Plant response rating, Foxtail, Giant (foxtail, giant; [10])
5: Plant response rating (scale of 0 to 100), Blackgrass (blackgrass; Postemergence, 16 g ai/ha) | Plant response rating (scale of 0 to 100 where 0 is no effect and 100 is complete control), Blackgrass (blackgrass; Postemergence) | Blackgrass plant response rating (blackgrass) | Plant response rating (scale of 0 to 100), Crabgrass, Large (crabgrass, large [3]; Postemergence, 16 g ai/ha) | Plant response rating (scale of 0 to 100 where 0 is no effect and 100 is complete control), Crabgrass, Large (crabgrass, large [3]; Postemergence) | Plant response rating (scale of 0 to 100 where 0 is no effect and 100 is complete control), Johnsongrass (johnsongrass; Postemergence) | Johnsongrass plant response rating (johnsongrass) | Plant response rating, Johnsongrass (johnsongrass; [5]) | Plant response rating (scale of 0 to 100), Corn (corn; Postemergence, 16 g ai/ha) | Plant response rating (scale of 0 to 100), Oilseed Rape (oilseed rape; Postemergence, 16 g ai/ha) | Plant response rating (scale of 0 to 100 where 0 is no effect and 100 is complete control), Oilseed Rape (oilseed rape; Postemergence) | Oilseed Rape plant response rating (oilseed rape) | Plant response rating, Oilseed Rape (oilseed rape; [5]) | Wheat plant response rating (wheat) | Plant response rating, Wheat (wheat; [5])
10: Plant response rating (scale of 0 to 100 where 0 is no effect and 100 is complete control), Corn (corn; Postemergence) | Corn plant response rating (corn)
100: Morningglory plant response rating (morningglory [1]; [6]) | Morningglory plant response rating (morningglory [1]; [7]) | Morningglory plant response rating (morningglory [2]; [9]) | Plant response rating, Crabgrass, Large (crabgrass, large [4]; [12]) | Crabgrass, Large plant response rating (crabgrass, large [4]; [13]) | Foxtail, Giant plant response rating (foxtail, giant; [13]) | Plant response rating, Waterhemp (waterhemp; [12]) | Waterhemp plant response rating (waterhemp; [13])
90: Pigweed plant response rating (pigweed; [6])
0: Plant response rating (scale of 0 to 100), Johnsongrass (johnsongrass; Postemergence, 16 g ai/ha) | Plant response rating, Barnyardgrass (barnyardgrass) | Plant response rating (scale of 0 to 100), Wheat (wheat; Postemergence, 16 g ai/ha) | Plant response rating (scale of 0 to 100 where 0 is no effect and 100 is complete control), Wheat (wheat; Postemergence)
98: Plant response rating, Foxtail, Giant (foxtail, giant; [12])
60: Pigweed plant response rating (pigweed; [7]) | Plant response rating, Corn (corn; [5])
95: Waterhemp plant response rating (waterhemp; [11])
85: Plant response rating, Waterhemp (waterhemp; [10])

CCc1cc(C(=O)NC(C)C)nn1Cc1ccnc(C(F)(F)F)c1 [Compound 103]
90: Morningglory plant response rating (morningglory [1]; [7]) | Pigweed plant response rating (pigweed; [6]) | Pigweed plant response rating (pigweed; [7])
0: Plant response rating (scale of 0 to 100 where 0 is no effect and 100 is complete control), Wheat (wheat; Postemergence)
100: Morningglory plant response rating (morningglory [1]; [6]) | Morningglory plant response rating (morningglory [2]; [8]) | Morningglory plant response rating (morningglory [2]; [9]) | Plant response rating (scale of 0 to 100), Crabgrass, Large (crabgrass, large [4]; Preemergence, 250 g ai/ha) | Crabgrass, Large plant response rating (crabgrass, large [4]; [11]) | Plant response rating, Crabgrass, Large (crabgrass, large [4]; [12]) | Crabgrass, Large plant response rating (crabgrass, large [4]; [13]) | Plant response rating (scale of 0 to 100), Foxtail, Giant (foxtail, giant; Preemergence, 250 g ai/ha) | Foxtail, Giant plant response rating (foxtail, giant; [11]) | Plant response rating, Foxtail, Giant (foxtail, giant; [12]) | Foxtail, Giant plant response rating (foxtail, giant; [13]) | Plant response rating (scale of 0 to 100), Waterhemp (waterhemp; Preemergence, 250 g ai/ha) | Waterhemp plant response rating (waterhemp; [11]) | Plant response rating, Waterhemp (waterhemp; [12]) | Waterhemp plant response rating (waterhemp; [13])
15: Blackgrass plant response rating (blackgrass) | Crabgrass, Large plant response rating (crabgrass, large [3]) | Corn plant response rating (corn) | Plant response rating, Wheat (wheat; [14])
70: Plant response rating, Oilseed Rape (oilseed rape; [14])
5: Plant response rating (scale of 0 to 100 where 0 is no effect and 100 is complete control), Johnsongrass (johnsongrass; Postemergence) | Plant response rating (scale of 0 to 100 where 0 is no effect and 100 is complete control), Oilseed Rape (oilseed rape; Postemergence) | Wheat plant response rating (wheat) | Plant response rating, Wheat (wheat; [5])
85: Plant response rating, Crabgrass, Large (crabgrass, large [3]; [14])
50: Oilseed Rape plant response rating (oilseed rape) | Plant response rating, Oilseed Rape (oilseed rape; [5])
35: Plant response rating, Crabgrass, Large (crabgrass, large [3]; [5]) | Plant response rating, Corn (corn; [5])
95: Plant response rating, Johnsongrass (johnsongrass; [14]) | Plant response rating, Corn (corn; [14])
60: Plant response rating, Blackgrass (blackgrass; [14])
20: Plant response rating, Johnsongrass (johnsongrass; [5])
40: Plant response rating, Blackgrass (blackgrass; [5]) | Plant response rating, Barnyardgrass (barnyardgrass)
10: Plant response rating (scale of 0 to 100 where 0 is no effect and 100 is complete control), Blackgrass (blackgrass; Postemergence) | Plant response rating (scale of 0 to 100 where 0 is no effect and 100 is complete control), Crabgrass, Large (crabgrass, large [3]; Postemergence) | Johnsongrass plant response rating (johnsongrass) | Plant response rating (scale of 0 to 100 where 0 is no effect and 100 is complete control), Corn (corn; Postemergence)
